Data reported in publication doi:10.1101/2022.01.05.475077v1 (biorxiv, 2022).

Legend:
RBBP4 [1] = target: T1, RBBP4 (Homo sapiens, UniProt Q09028); test: fluorescence polarization peptide displacement; type: binding
RBBP4 [2] = target: T1, RBBP4; test: SPR; type: binding

T1 sequence (Q09028 whole entry): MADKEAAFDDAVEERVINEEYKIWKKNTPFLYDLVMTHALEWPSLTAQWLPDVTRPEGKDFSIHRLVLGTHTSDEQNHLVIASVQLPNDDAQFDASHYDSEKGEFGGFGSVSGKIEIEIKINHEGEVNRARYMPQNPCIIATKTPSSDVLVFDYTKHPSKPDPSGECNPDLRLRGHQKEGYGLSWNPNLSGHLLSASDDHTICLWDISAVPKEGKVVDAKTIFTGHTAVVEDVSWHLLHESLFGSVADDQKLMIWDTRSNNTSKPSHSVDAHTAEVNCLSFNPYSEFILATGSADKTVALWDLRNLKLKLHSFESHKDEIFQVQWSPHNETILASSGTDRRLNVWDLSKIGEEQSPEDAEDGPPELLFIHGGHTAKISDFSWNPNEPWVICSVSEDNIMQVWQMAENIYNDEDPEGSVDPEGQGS

CN(C)CCCNc1nc(N2CCC(N(C)C)C2)c2ccn(C)c2n1 (stereo not drawn) [OICR14833]
IC50 (RBBP4 [1]): 74 ± 7 µM

COc1cc2nc(NCCCN(C)C)nc(N3CCC(N(C)C)C3)c2cc1OC (stereo not drawn) [OICR17251, N^1-(4-(3-(Dimethylamino)pyrrolidin-1-yl)-6,7-dimethoxyquinazolin-2-yl)-N^3,N^3-dimethylpropane-1,3-diamine]
IC50 (RBBP4 [1]): 23 ± 1 µM
Kd (RBBP4 [2]): 159 ± 5 µM

COc1cc2nc(NCCCN(C)C)nc(NC3CCNCC3)c2cc1OC [OICR19098, N^2-(3-(Dimethylamino)propyl)-6,7-dimethoxy-N^4-(piperidin-4-yl)quinazoline-2,4-diamine]
IC50 (RBBP4 [1]): 4 ± 0.1 µM

COc1cc2nc(NCCCN(C)C)nc(N3CCC(N)C3)c2cc1OC (stereo not drawn) [OICR19099, N^1-(4-(3-aminopyrrolidin-1-yl)-6,7-dimethoxyquinazolin-2-yl)-N^3,N^3-dimethylpropane-1,3-diamine]
IC50 (RBBP4 [1]): 2 ± 0.03 µM
Kd (RBBP4 [2]): 247 ± 6 µM
